ChEMBL document CHEMBL1149990, “1-(2-METHOXYPHENYL)-4-ALKYLPIPERAZINES: EFFECT OF THE N-4 SUBSTITUENT ON THE AFFINITY AND SELECTIVITY FOR DOPAMINE D4 RECEPTOR” (Bioorg Med Chem Lett, 1997)

Legend:
[1] = target: T1, D(4) dopamine receptor (Homo sapiens, UniProt P21917); assay: Displacement of [3H]YM-09151-2 from human Dopamine receptor D4.2 expressed in baculovirus Sf9 cells
T1 sequence (P21917 whole entry): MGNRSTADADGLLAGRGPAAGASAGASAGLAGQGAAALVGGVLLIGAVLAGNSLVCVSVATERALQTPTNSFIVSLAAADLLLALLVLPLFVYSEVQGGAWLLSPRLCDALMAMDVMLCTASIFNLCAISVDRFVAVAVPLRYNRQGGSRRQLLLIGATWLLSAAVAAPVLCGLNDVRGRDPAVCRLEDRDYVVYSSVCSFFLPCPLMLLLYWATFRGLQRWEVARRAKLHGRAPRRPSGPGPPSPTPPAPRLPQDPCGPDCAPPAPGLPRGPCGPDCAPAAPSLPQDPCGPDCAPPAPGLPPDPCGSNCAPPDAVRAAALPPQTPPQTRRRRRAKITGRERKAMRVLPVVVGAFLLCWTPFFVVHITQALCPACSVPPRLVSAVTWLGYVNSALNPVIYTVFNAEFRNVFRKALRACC

[2] = target: T2, Adrenergic receptor alpha-1 (Rattus norvegicus, UniProt P15823+P23944+P43140); assay: Displacement of [3H]prazosin from Alpha-1 adrenergic receptor of rat cerebral cortex; type: tissue-based
T2 sequence (P15823 whole entry): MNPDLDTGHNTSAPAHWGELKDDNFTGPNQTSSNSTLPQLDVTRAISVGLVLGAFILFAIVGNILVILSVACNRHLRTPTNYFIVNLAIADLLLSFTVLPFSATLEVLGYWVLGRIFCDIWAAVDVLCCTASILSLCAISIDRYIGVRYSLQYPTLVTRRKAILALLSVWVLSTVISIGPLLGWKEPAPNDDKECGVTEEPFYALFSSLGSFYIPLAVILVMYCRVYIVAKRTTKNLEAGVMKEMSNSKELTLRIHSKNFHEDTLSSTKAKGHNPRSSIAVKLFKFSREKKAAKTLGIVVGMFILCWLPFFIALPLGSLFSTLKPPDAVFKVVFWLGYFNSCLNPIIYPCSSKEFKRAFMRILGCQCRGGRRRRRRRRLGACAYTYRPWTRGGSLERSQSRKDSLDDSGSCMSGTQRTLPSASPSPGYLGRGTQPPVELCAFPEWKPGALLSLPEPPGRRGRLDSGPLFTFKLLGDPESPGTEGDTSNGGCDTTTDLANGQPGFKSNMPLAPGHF
T2 sequence (P23944 whole entry): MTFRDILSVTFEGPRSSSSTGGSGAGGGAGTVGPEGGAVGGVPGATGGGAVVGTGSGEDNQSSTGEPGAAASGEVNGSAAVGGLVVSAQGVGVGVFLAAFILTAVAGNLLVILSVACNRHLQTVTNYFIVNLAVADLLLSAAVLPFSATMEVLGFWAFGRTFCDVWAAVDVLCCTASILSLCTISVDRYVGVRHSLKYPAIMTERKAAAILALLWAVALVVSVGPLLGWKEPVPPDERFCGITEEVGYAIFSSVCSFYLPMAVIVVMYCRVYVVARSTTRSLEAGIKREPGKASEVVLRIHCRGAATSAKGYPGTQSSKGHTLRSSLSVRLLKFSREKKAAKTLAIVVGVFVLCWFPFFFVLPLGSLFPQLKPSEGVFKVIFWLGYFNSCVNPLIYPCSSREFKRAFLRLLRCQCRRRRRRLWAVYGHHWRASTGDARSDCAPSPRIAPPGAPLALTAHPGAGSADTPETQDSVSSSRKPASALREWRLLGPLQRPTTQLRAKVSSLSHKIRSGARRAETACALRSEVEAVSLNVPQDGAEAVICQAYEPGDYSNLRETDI
T2 sequence (P43140 whole entry): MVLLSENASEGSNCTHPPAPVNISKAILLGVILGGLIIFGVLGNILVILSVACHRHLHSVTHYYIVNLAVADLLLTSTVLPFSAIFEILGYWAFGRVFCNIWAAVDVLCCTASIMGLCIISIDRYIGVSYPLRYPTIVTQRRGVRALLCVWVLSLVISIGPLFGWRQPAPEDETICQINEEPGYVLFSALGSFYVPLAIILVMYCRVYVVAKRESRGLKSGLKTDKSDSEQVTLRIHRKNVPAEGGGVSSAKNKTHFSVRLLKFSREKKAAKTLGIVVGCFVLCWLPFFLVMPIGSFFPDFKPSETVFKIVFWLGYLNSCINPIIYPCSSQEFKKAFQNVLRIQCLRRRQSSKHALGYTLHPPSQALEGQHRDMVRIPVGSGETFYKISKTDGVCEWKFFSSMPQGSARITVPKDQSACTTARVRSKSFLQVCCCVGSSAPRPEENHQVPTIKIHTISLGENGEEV

Ki [1] [nM]	Ki [2] [nM]	SMILES
19	8	COc1cc(N)c(Cl)cc1C(=O)NCCN1CCN(c2ccccc2OC)CC1
1.7	19	COc1cccc(C(=O)CCCN2CCN(c3ccccc3OC)CC2)c1
22		COc1ccccc1N1CCN(CCNC(=O)C2CCCc3c(OC)cccc32)CC1 (stereo not given)
49	70	COc1ccccc1N1CCN(CCCNC(=O)C2CCCc3cccc(OC)c32)CC1 (stereo not given)
	1	COc1ccccc1N1CCN(CCCC2CCCc3c(OC)cccc32)CC1 (stereo not given)
67	125	COc1ccccc1N1CCN(CCC(=O)NC2CCCc3c(OC)cccc32)CC1 (stereo not given)
43	65	COc1ccccc1N1CCN(CCCCC2CCCc3c(OC)cccc32)CC1 (stereo not given)
43	41	COc1cccc(C(=O)CCCCN2CCN(c3ccccc3OC)CC2)c1

SMILES	Ki [1] [nM]	Ki [2] [nM]
COc1ccccc1N1CCN(Cc2cccc(-c3ccccc3)c2)CC1	8	
